From US20050288279A1, “Phenothiazine derivatives and their method of use” (priority 2004, published 2005)
“Also recorded” adds a separate entry of the source. Read-outs that look alike come from different tables or passages of the source.

Assays:
[1] = WHO; cited from earlier work
guinea pigs = details: p.o. (Schwetz et al. 1973); cited from earlier work
hamsters = hamsters (Eisler 1986); cited from earlier work
rats [2] = details: cited from earlier work
rats [3] = details: adult cycling rats, 10 μg/kg (Li et al. 1995a); cited from earlier work
rats [4] = details: calculated from the literature, cited from earlier work
humans = details: cited from earlier work
[5] = human data; cited from earlier work
guinea pig = experiment: Single intravenous administration of TCPT in guinea pigs; assay type: in vivo; details: single i.v. 10 mg/kg in acetone (0.5 ml/kg)
Description: During ovulation studies (see Example 4 below), an adult female was lost after having been dosed with 10 mg/kg/day for 9 consecutive days; the animal died on day 13.
In this example, the toxicity of TCPT was compared between each species. […] On the other hand, a female rat receiving i.v. 10 mg/kg was sedated within 30 minutes.

[6] = Acute i.v. toxicity of TCPT in rats; assay type: in vivo, rat; details: female, Sprague-Dawley, rat, in vivo, iv; rats, i.v.; read-out: dose for the acute lethal toxicity (referred to as i.v. LD50)
Description: (§1) Animals dosed with 10 mg/kg became unconscious for 30 min, whereas in the 5 mg/kg dose group, the rats lost consciousness for 3 min only, likely representing the effects of acetone in this case.
(§2) Due to the unexpectedly rapid onset of death, no more detailed observations, e.g. on the heart rate, could be made.

Sprague-Dawley rats = experiment: Acute i.v. toxicity of TCPT in rats; assay type: in vivo, rat
Description: as §1, §2

[7] = system: Dunkin-Hartley guinea pigs; experiment: Altering the regulation level for bodyweight in guinea pigs; assay type: in vivo, guinea pig
Description: In the present invention, guinea pigs were dosed for 9 consecutive days with 2.5, 5, 10 and 20 mg/kg/day TCPT, respectively. The observations presented here were made during another study which was not designed for comparative body weight analysis. […] In contrast to studies on TCDD, weight gain resumed 1-2 days after cessation, probably due to TCPT's shorter half-life and therefore more rapid elimination.

[8] = system: Dunkin-Hartley guinea pigs; experiment: Effects on ovulation in guinea pigs; assay type: in vivo, guinea pig
Text: In the present invention, guinea pigs were chosen for this study for two reasons. First, they represent the species that is the most sensitive to TCDD. […] Dosing with gelatin capsules can be performed in this species without anesthesia, which is not possible in rats. This is an important factor, since anesthetics generally influence ovulation.
The guinea pigs were followed for at least two regular consecutive cycles (about 16 days each) before commencing with dosing and also after the administration of TCPT was terminated. Their cycles were tracked by observation of vaginal opening and vaginal smears. The day of ovulation, day 1, was defined as a leucocytic smear following a cornified smear. The animals were dosed for 9 consecutive days starting on day 9 of a highly regular normal cycle. This way, the dosing period overlapped with the relevant time-span for ovulation and regulation of the cycle length (Terranova & Greenwald 1981). The animals received dose rates of 2.5, 5, 10 and 20 mg/kg TCPT per day. One animal was pair-fed to an animal dosed with 20 mg/kg/day TCPT.

CYP 1A1 = experiment: In vitro ethoxyresorufin-O-deethylase (EROD) study in rat hepatoma cells; assay type: cell-based
Description: The induction of CYP 1A1 has been quantitatively measured in an cell-line study. The choice of EROD as an in vitro study was made based on its established procedure and speed. […] Its metabolic context is both, a strength and a weakness of the EROD assay. The greatest advantage of cell-based assays is the detection of the actual gene expression as compared to the study of interaction with DREs (Seidel et al. 2000).
The EROD-specific activity of TCPT declined over time, with its maximum at 24 h out of measurements after 24, 48 and 72 h. This indicates a comparatively rapid metabilization of TCPT by rat hepatoma cells.

[9] = Half-lives after intravenous dosage in rats; details: rat, in vivo
Text: (§3) Studies on a limited number of animal have been conducted to determine the approximate half-life of TCPT.

[10] = Half-lives after intravenous dosage in guinea pigs; details: guinea pig, in vivo, 10 mg/kg, two guinea pigs, i.v. 10 mg/kg
Text: as §3

[11] = Solubility and stability observations; assay type: physicochemical
rats [12] = experiment: Observed interaction with anesthetics (pentobarbital)
[13] = Acute toxicity, daily p.o. doses of TCPT in guinea pigs; details: female, Dunkin-Hartley, guinea pig, in vivo, po
Description: (§4) In this example, dose-range finding studies were performed with a small number of animals to accommodate the limited availability of TCPT.
(§5) Six adult male Dunkin-Hartley guinea pigs were given daily p.o. doses of TCPT. Due to its insolubility, TCPT was administered as a solid in size 9 gelatin capsules and dosing devices purchased from Torpack, Inc. (Fairfield, N.J.).
(§6) The experimental design of daily dosing accounted for the short half-life known from clinically used phenothiazines and the results of prior unpublished studies with 1,2,3,7,8,9-hexachlorophenothiazine.
(§7) This example first looked at daily p.o. administration to guinea pigs. Eleven guinea pigs received multiple doses of TCPT, with dosages ranging from 2.5 to 100 mg/kg/day.

[14] = system: Dunkin-Hartley guinea pigs; experiment: as above
Description: as §4, §5, §6, §7

[15] = 20 mg/kg/day, 9 consecutive days
[16] = peroral solid TCPT 30 min prior to pentobarbital (55 mg/kg)

In the case of `Clc1cc2c(cc1Cl)Oc1c(cc(Cl)c(Cl)c1Cl)O2` [PeCDD, 1,2,3,7,8-pentachlorodibenzo-p-dioxin], the TEF-value [1] is given as 1.

In the case of `Clc1cc2c(cc1Cl)Oc1cc(Cl)c(Cl)cc1O2` [TCDD, 2,3,7,8-Tetrachlorodibenzo-p-dioxin], the LD50 (guinea pigs) is given as 0.0021 mg/kg, the LD50 (hamsters) is given as 1157−5051 μg/kg and the LD50 (rats [2]; Han Wistar rats (Pohjanvirta et al.)) is given as greater than 3 mg/kg. For the same molecule, the LD50 (rats [2]; Long-Evans rats (Pohjanvirta et al.)) was 0.01 mg/kg, the “inter-strain difference in LD50” value (rats [2]; between Long-Evans and Han Wistar rats) was roughly 300 fold and the LD50 (rats [2]; female rats (Schwetz et al. 1973)) was 0.045 mg/kg. The LD50 (rats [2]; male rats (Schwetz et al. 1973)) was 0.022 mg/kg, the “i.v. LD50” value (rats [2]; rats, i.v. (Schwetz et al. 1973)) was 0.025 mg/kg and the “effect on cycle and ovulation” value (rats [3]) was “prolonged diestrus stage”. The “body burden below which weight gain resumed” value (rats [4]; 3 weeks after dosing) was “Below 5 μg/kg”, the “body burden at which feed intake started rising again” value (rats [4]; after non-lethal dose of 15 μg/kg, after 11 days) was 6.6 to 8 µg/kg and the TEF-value [1] was 1. For the same molecule, the “concentration below which most individuals do not show signs” value (humans; humans (Williams & Wilkins 1992)) was 11,000 ppt, the “dose corresponding to 11,000 ppt” value (humans; humans (Young 1984)) was “about 100 μg/kg” and the “concentration at which chloracne symptoms may occur” value (humans; susceptible individuals, based on serum lipid content) was 800 ppt. For the same molecule, the absorption [5] was greater than 86%.

In the case of `Clc1cc2c(cc1Cl)Sc1cc(Cl)c(Cl)cc1N2` [TCPT, 2,3,7,8-tetrachlorophenothiazine], the observable effects (guinea pig) is reported as “no observable effect”, the LD50 [6] is reported as 10 to 30 mg/kg and the sedation (Sprague-Dawley rats; female rat, i.v. 10 mg/kg) is reported as no more than 30 min. The “duration of lost consciousness” value (Sprague-Dawley rats; female rats, i.v. 5 mg/kg in acetone (1 ml/kg), likely effect of acetone) was 3 min, the duration of unconsciousness (Sprague-Dawley rats; female rats, i.v. 10 mg/kg in acetone (1 ml/kg)) was 30 min and the lethality (Sprague-Dawley rats; female rats, i.v. 30 mg/kg in acetone (1 ml/kg), 30 mg/kg) was “died within five seconds; also recorded: dropped dead within five seconds; also recorded: lethal dose”. The “i.v. LD50 of TCPT relative to reported i.v. LD50 of TCDD” value (Sprague-Dawley rats; rats) was “roughly 1,000 times”, the set-point of bodyweight ([7]; all survivors) was “reduced set-point of bodyweight” and the “bodyweight during the dosing period” value ([7]; guinea pigs, 2.5, 5, 10 and 20 mg/kg/day for 9 consecutive days) was “decrease in bodyweight”. For the same molecule, the “time until weight gain resumed after cessation” value ([7]; guinea pigs, after 9 days of dosing) was 1 to 2 days, the “reduction of set-point for bodyweight” value ([7]; treated animal (20 mg/kg/day, 9 days), FIG. 2) was 66 grams and the effect on cycle/ovulation ([8]; 10 mg/kg/day, 9 consecutive days) was “shortened period of vaginal opening”. The effect on ovulation [8, 15] was “inhibited ovulation”, the vaginal opening [8, 15] was “irregular vaginal opening” and the “direct or endocrine effect on the ovaries” value ([8]; guinea pigs, conclusion of the experiment) was “no direct or endocrine effect on the ovaries”. The effect on cycle/ovulation ([8]; two lowest dose groups (2.5, 5 mg/kg per day), 9 consecutive days from day 9 of cycle) was “no effect”, the “potency compared with TCDD (acute toxicity in animals and in vitro EROD-specific activity)” value (CYP 1A1) was “three orders of magnitude less potent” and the “time of maximum EROD-specific activity” value (CYP 1A1; measurements after 24, 48 and 72 h, declined over time) was 24 h. For the same molecule, the “efficacy, of the efficacy of TCDD, in vitro EROD-bioassay” value (CYP 1A1; rat hepatoma cells) was 77%, the half-life ([9]; 5 mg/kg, two rats, i.v. 5 mg/kg, read-out: half-life, distribution phase (converted)) was 0.82 h and the half-life ([9]; 5 mg/kg, two rats, i.v. 5 mg/kg, read-out: half-life, elimination phase (converted)) was 5.42 h. It also gave a half-life ([9]; 10 mg/kg, one rat, i.v. 10 mg/kg, read-out: half-life, distribution phase (converted)) of 0.47 h, a half-life ([9]; 10 mg/kg, one rat, i.v. 10 mg/kg, read-out: half-life, elimination phase (converted)) of 2.25 h and a half-life ([10]; read-out: half-life, distribution phase (converted)) of 0.42 h. For the same molecule, the half-life ([10]; read-out: half-life, elimination phase (converted)) was 2.71 h, the stability in acetone [11] was “decomposes in acetone” and the stability in acetone ([11]; listed as KWF3) was “degraded when kept in acetone for longer periods of time”. The solubility ([11]; any solvent) was “insolubility; also recorded: low solubility”, the “mortality in anesthetized animals” value (rats [12]; i.v. 3 mg/kg, pentobarbital anesthesia) was “one animal dying out of three” and the “effect in anesthetized animals” value (rats [12]; i.v. 5 mg/kg in acetone (1 ml/kg), pentobarbital 55 mg/kg) was “immediate respiratory arrest”. For the same molecule, the fatalities (rats [12]; [16]) was “no fatalities”, the “shortening of the onset of anesthesia” value (rats [12]; [16]) was “about 50%” and the breathing (rats [12]; rats, p.o. administration of various doses during pentobarbital-induced anesthesia) was “breathed very shallow and in long intervals”. For the same molecule, the LD50 [13] was 25 to 50 mg/kg, the day of death ([14]; adult female guinea pig, 10 mg/kg/day p.o. for 9 consecutive days) was 13 days and the Result ([14]; adult male guinea pig, animal 1, p.o. 25 mg/kg/d for 18 days) was “survived”. The Result ([14]; adult male guinea pig, animal 2, p.o. l00 mg/kg/d for 8 days) was “died”, the Result ([14]; adult male guinea pig, animal 3, p.o. 50, 10, 25, 50 mg/kg/d (dose-range finding) for 17 days) was “died” and the Result ([14]; adult male guinea pigs, animals 4-6, p.o. 27.5, 44, 50, 57, 67, 75 mg/kg/d for 13 days) was “survived”. The body weight ([14]; eleven guinea pigs, multiple p.o. doses 2.5 to 100 mg/kg/day) was “body weight loss”, the “p.o. LD50 of TCPT relative to reported p.o. LD50 of TCDD” value ([14]; guinea pigs) was “roughly 10,000 times” and the autopsy finding ([14]; guinea pigs that died) was “loss of all adipose tissue”. The “days of dosing until death” value ([14]; guinea pigs, p.o. 25-50 mg/kg/day) was 8 to 11 days, the “dose for the acute lethal toxicity” value ([14]; guinea pigs, p.o., daily dosing) was 25 to 50 mg/kg/day and the “difference in acute toxicity to TCDD” value ([14]; oral administration) was 10^−4 fold. For the same molecule, the “peroral potency compared with TCDD (wasting syndrome)” value ([14]; p.o. dosing) was “four orders of magnitude lower” and the tolerance ([14]; survivors of daily p.o. dosing) was “development of tolerance”.
